Tests used:
Format in all cases: in vivo
Lolium perenne (LOLPE) = test: Glasshouse weed test, pinoxaden with adjuvants; conditions: Table 12, Example 8: pinoxaden 7.5 or 15 g/ha; adjuvant 0.2% v/v; Atlas G5000 in spray tank; mean over two rates, three replicates, 7, 14 and 20 days
Experimental: (§1) The aromatic ester Finsolv® TN (C12-C15 alkyl benzoate) was tested in a glasshouse against four weed species using the herbicide pinoxaden. An agrochemical composition was prepared containing 0.2% v/v of the adjuvant in a track sprayer and was applied at a volume of 200 liters per hectare. Pinoxaden was applied at either 7.5 or 15 grams of pesticide per hectare on each of the weed species. […] The weed species and their growth stage at spraying were Alopecurus myosuroides (ALOMY; growth stage 13), Avena fatua (AVEFA; growth stage 12); Lolium perenne (LOLPE; growth stage 13), Setaria viridis (SETVI; growth stage 14).
(§2) Each spray test was replicated three times. The efficacy of the herbicide was assessed visually and expressed as a percentage of the leaf area killed. Samples were assessed at time periods of 7, 14 and 20 days following application. The results shown in Table 12 below are mean averages over the two rates of pinoxaden, three replicates and the three assessment timings, and are compared to the efficacy of pinoxaden in the absence of an adjuvant and pinoxaden in the presence of triethylhexyl phosphate.

Setaria viridis (SETVI) = test: Glasshouse weed test, pinoxaden with adjuvants; conditions: Table 12, Example 8: pinoxaden 7.5 or 15 g/ha; adjuvant 0.2% v/v; Atlas G5000 in spray tank; mean over two rates, three replicates, 7, 14 and 20 days
Experimental: as §1, §2

Avena fatua (AVEFA) = test: Glasshouse weed test, pinoxaden with adjuvants; conditions: Table 12, Example 8: pinoxaden 7.5 or 15 g/ha; adjuvant 0.2% v/v; Atlas G5000 in spray tank; mean over two rates, three replicates, 7, 14 and 20 days
Experimental: as §1, §2

[1] = system: Alopecurus myosuroides (ALOMY); test: Glasshouse weed test, pinoxaden with adjuvants; conditions: Table 12, Example 8: pinoxaden 7.5 or 15 g/ha; adjuvant 0.2% v/v; Atlas G5000 in spray tank; mean over two rates, three replicates, 7, 14 and 20 days
Experimental: as §1, §2

[2] = system: four weed species (ALOMY, AVEFA, LOLPE, SETVI); test: Glasshouse weed test, pinoxaden with adjuvants, mean across species; conditions: mean over two rates
Experimental: as §1, §2
A second experiment was conducted to assess the efficacy of Finsolv® TN as an adjuvant for pinoxaden. This was carried out as outlined above, with the following change: samples were assessed at 14 and 20 days post application. The results shown below in Table 13 are mean averages over the two rates of pinoxaden, three replicates, the two assessment timings, and the four weed species, and are compared to the efficacy of pinoxaden in the absence of an adjuvant and pinoxaden in the presence of the common adjuvant methyl oleate.
as §1, with “An” for “The aromatic ester Finsolv® TN (C12-C15 alkyl benzoate) was tested in a glasshouse against four weed species using the herbicide pinoxaden. An”
as §2, with “17” for “12”, “Brij®96.” for “triethylhexyl phosphate.”
as §1, with “An” for “The aromatic ester Finsolv® TN (C12-C15 alkyl benzoate) was tested in a glasshouse against four weed species using the herbicide pinoxaden. An”, “hectare. The adjuvant oils were emulsified using a small amount of the surfactant Pluronic® PE 10500, which was present in the composition at a concentration of 0.02% v/v.” for “hectare.”, “13-14).” for “14).”
as §2, with “of” for “of 7,”, “and 21” for “and 20”, “Table 18” for “Table 12”, “the two” for “the three”, “of tris 2ethylhexylphosphate (TEHP).” for “of triethylhexyl phosphate.”
The aromatic esters Finsolv® TN and the aromatic ester ethoxylate Dermol 25-3B were tested in a glasshouse against four weed species using the herbicide pinoxaden. […]

[3] = system: four weed species (ABUTH, CHEAL, DIGSA, SETVI); test: Glasshouse weed test, nicosulfuron with adjuvants, mean across species; conditions: Table 27, Example 24: nicosulfuron 30 or 60 g/ha; mean over two rates, three replicates, 14 and 21 days
Experimental: The aromatic ester Finsolv® TN (C12-C15 alkyl benzoate) was tested in a glasshouse against four weed species using the herbicide nicosulfuron. An agrochemical composition was prepared containing 0.2% v/v of the adjuvant in a track sprayer, and was applied at a volume of 200 liters per hectare. Nicosulfuron was applied at either 30 or 60 grams of pesticide per hectare on each of the weed species. The weed species and their growth stage at spraying were Abutilon theophrasti (ABUTH; growth stage 13), Chenopodium album (CHEAL; growth stage 14), Digitaria sanguinalis (DIGSA; growth stage 13), and Setaria viridis (SETVI; growth stage 13).
as §2, with “test” for “test was”, “6” for “12”, “nicosulfuron,” for “pinoxaden,”, “nicosulfuron” for “pinoxaden”, “adjuvant,” for “adjuvant”, “the commercially available tank-mix adjuvant, Atplus411F®.” for “triethylhexyl phosphate.”
A second experiment was conducted to assess the efficacy of Finsolv® TN as an adjuvant in compositions of nicosulfuron. This was carried out as outlined above, with the following change: samples were assessed at 14 and 20 days post application.
The results shown in Table 7 below are mean averages over the two rates of nicosulfuron, three replicates and the two assessment timings, and are compared to the efficacy of nicosulfuron in the absence of an adjuvant, and nicosulfuron in the presence of the commercially available tank-mix adjuvant, Atplus411F®.
The aromatic esters Benzoate 1 (see Example 9), Benzoflex 354 (2,2,4-trimethyl-1,3-pentanediol dibenzoate) and Finsolv® SB (stearyl benzoate) were tested in a glasshouse against four weed species using the herbicide nicosulfuron. Nicosulfuron was applied at either 30 or 60 grams of pesticide per hectare on each of the weed species. The weed species and their growth stage at spraying were Abutilon theophrasti (ABUTH; growth stage 13), Chenopodium album (CHEAL; growth stage 14), Digitaria sanguinalis (DIGSA; growth stage 13), and Setaria viridis (SETVI; growth stage 13).
Each spray test replicated three times. The efficacy of the herbicide was assessed visually and expressed as a percentage of the leaf area killed. Samples were assessed at time periods of 14 and 20 days following application. The results shown in Table 14 below are mean averages over the two rates of nicosulfuron, three replicates and the two assessment timings, and are compared to the efficacy of nicosulfuron in the absence of an adjuvant, and nicosulfuron in the presence of the commercially available tank-mix adjuvant, Atplus411F®.
An agrochemical composition was prepared containing 0.2% v/v of the adjuvant in a track sprayer and was applied at a volume of 200 liters per hectare. The adjuvant oils were emulsified using a small amount of the surfactant Pluronic® PE 10500, which was present in the composition at a concentration of 0.02% v/v. Nicosulfuron was applied at either 30 or 60 grams of pesticide per hectare on each of the weed species. The weed species and their growth stage at spraying were Abutilon theophrasti (ABUTH; growth stage 13), Chenopodium album (CHEAL; growth stage 14-15), Digitaria sanguinalis (DIGSA; growth stage 14), and Setaria viridis (SETVI; growth stage 13-14).
Each spray test replicated three times. The efficacy of the herbicide was assessed visually and expressed as a percentage of the leaf area killed. Samples were assessed at time periods of 14 and 21 days following application. […]

CCc1cc(C)cc(CC)c1-c1c(OC(=O)C(C)(C)C)n2n(c1=O)CCOCC2 [Pinoxaden, pinoxaden] was tested, and the “Mean percentage kill LOLPE” value (Lolium perenne (LOLPE)) was 5.0 B %, the “Mean percentage kill SETVI” value (Setaria viridis (SETVI)) was 0.8 B % and the “Mean percentage kill AVEFA” value (Avena fatua (AVEFA)) was 2.8 B %. For the same compound, the “Mean percentage kill ALOMY” value [1] was 1.1 B %, the “Mean percentage kill, Mean across species” value ([2]; Table 12, Example 8: pinoxaden 7.5 or 15 g/ha, adjuvant 0.2% v/v, Atlas G5000 in spray tank, three replicates, 7, 14 and 20 days) was 2.43 B % and the “Mean percentage kill, Mean across species” value ([2]; Table 13, Example 8 second experiment: pinoxaden 7.5 or 15 g/ha, adjuvant 0.2% v/v, three replicates, 14 and 20 days, four weed species) was 0.5 B %. The “Mean percentage kill, Mean across species” value ([2]; Table 17, Example 13: pinoxaden 7.5 or 15 g/ha, adjuvant 0.2% v/v, Atlas G5000 in spray tank, three replicates, 7, 14 and 20 days) was 1.8 C %, the “Mean percentage kill, Mean across species” value ([2]; Table 18, Example 14: pinoxaden 7.5 or 15 g/ha, adjuvant 0.2% v/v emulsified with Pluronic PE 10500 0.02% v/v, three replicates, 14 and 21 days) was 2.6B % and the “Mean percentage kill, Mean across species” value ([2]; Table 22, Example 18: absence of an adjuvant, pinoxaden 7.5 or 15 g/ha, three replicates, 14 and 21 days) was 3.6E %. The “Mean percentage kill, Mean across species” value ([2]; Table 26, Example 23: pinoxaden 7.5 or 15 g/ha, adjuvant 0.2% v/v, Atlas G5000, three replicates, 14 and 21 days) was 4.0C %, the “Mean percentage kill, Mean across species” value ([2]; Table 32, Example 32: pinoxaden 7.5 or 15 g/ha, adjuvant 0.2% v/v, Atlas G5000, three replicates, 14 and 21 days) was 3.6B % and the “Mean percentage kill, Mean across species” value [3] was 46.6C %.

Source: patent US10206388B2, “Formulation component” (SYNGENTA LIMITED, priority 2011, dated 2019)
